Each structure is given as a SMILES string.

This series concerns wild-type tomato and Fuji apple. The format is in vivo. Particulars: for the highest concentration not showing harmful effects of a medicine: in vivo; for the lowest concentration showing inhibiting effect: treated at the early blooming period. How it is done: Moreover, to investigate preferable concentration of treatment of the regulation composition for gametophytic self-incompatibility of the present invention, […] ppm CuSO4 and ZnSO4 were treated to wild-type tomato and Fuji apple at the early blooming period and the harmful effects of a medicine and fruition rates were investigated (see FIGS. 6 and 7). Since absorption rate of the regulation composition for gametophytic self-incompatibility of the present invention can be increased by treating it with a spreader in cultivating fruit trees, the CuSO4 and ZnSO4 were treated with a spreader by a method of spraying on the fruit trees at a specific period, that is, the early blooming period. Thus, it was shown that fruits and plants that are pollinated by self-pollen could be acquired by the treatment of a specific concentration of CuSO4 and ZnSO4 in wild-type tomato and Fuji apple without harmful effects of the medicine. From the results, it can be concluded that an inhibitor composition of a style-specific RNase of the present invention is effective in inhibition of a style-specific RNase without respect to species, and preferable concentration of CuSO4, which is treated at the early blooming period, is at 100˜700 ppm and preferable concentration of ZnSO4 is at 100˜800 ppm. Furthermore, very high pollination rate, without harmful effects of a medicine, could be achieved by spraying the inhibitor composition for gametophytic self-incompatibility of the present invention, which was mixed with the desirable amount of spreader according to the manufacturers' instruction. Among the spreaders, the spreader of hexaconazole class, siloxane class and alkylaryl polyethoxylate class is preferable to achieve high fruition rate. The preferable concentration of the inhibitor composition for gametophytic self-incompatibility of the present invention was shown in table 1. When CuSO4 is used as an effective component of the style-specific RNase inhibitor as shown in the table 1, if the concentration of CuSO4 is below 100 ppm, it is difficult to achieve a stable fruition rate over 70% because it cannot inhibit RNase activity appropriately, on the other hand, if the concentration of CuSO4 is over 700 ppm, it is not economical because it can induce harmful effects of a medicine. Furthermore, when ZnSO4 is used as an effective component of the style-specific RNase inhibitor, if the concentration of ZnSO4 is below 100 ppm, it is difficult to achieve a stable fruition rate over 70% because it cannot inhibit RNase activity appropriately, on the other hand, if the concentration of ZnSO4 is over 800 ppm, it is not economical because it can induce harmful effects of a medicine.

Turning to `O=S(=O)([O-])[O-].[Cu+2]` [CuSO4], the “the highest concentration not showing harmful effects of a medicine” value was 700 ppm and the “the lowest concentration showing inhibiting effect” value was found to be 100 ppm.
Consider `O=S(=O)([O-])[O-].[Zn+2]` [ZnSO4], for which the “the highest concentration not showing harmful effects of a medicine” value is given as 800 ppm and the “the lowest concentration showing inhibiting effect” value is reported as 100 ppm.

For the origin of these results see US6723680B2, “Composition for regulation of gametophytic self-incompatibility, control method of gametophytic self-incompatibility of a plant and the plant self-pollinated by using said control method” (Istech Co., Ltd., priority 2000, dated 2004).
